≈ marks a conversion by molar mass, not a printed value. Where “and” joins values, the source holds several entries; their conditions need not be identical. Equal values may be shown once. Read-outs that look alike come from different tables or passages of the source.
Key:
[1] = tested on: M. pneumoniae; assay: microbe, parasite or virus in culture; type: cell-based; settings: Mycoplasmoides pneumoniae
[2] = tested on: M. genitalium; type: cell-based; settings: M. genitalium (5 isolates)
[3] = tested on: M. fermentans; type: cell-based; settings: M. fermentans (15 isolates)
[4] = tested on: M. hominis; type: cell-based; settings: M. hominis (13 isolates)
[5] = tested on: U. parvum; assay: MIC testing in 10B broth (colour change); type: cell-based, Ureaplasma parvum
[6] = tested on: U. urealyticum; assay: MIC testing in 10B broth (colour change); type: cell-based; settings: U. urealyticum (10 isolates)
[7] = tested on: N. meningitidis; assay: MIC, CLSI broth microdilution, invasive isolates; type: cell-based; settings: Neisseria meningitidis; 62 N. meningitidis isolates
Experimental: Example. […] Colonization of the nasopharynx (NP) by NM can lead to invasive meningococcal disease. Chemoprophylaxis is used to eradicate NP colonization and prevent transmission to nonimmune contacts. […] 62 isolates (91.9% blood culture) of NM were collected from 29 medical centers in North and South America and Europe (1997-2008). […] Serological identification was performed for serogroups (SGs) B, C, Y and W135.

[8] = tested on: S. pyogenes; assay: microbe, parasite or virus in culture; type: cell-based; settings: for MIC: Streptococcus pyogenes
[9] = tested on: intraphagocytic L. pneumophila ATCC 33153 (THP-1); type: cell-based; settings: intracellular L. pneumophila ATCC 33153
[10] = tested on: S. pyogenes 3029; assay: Intraperitoneal (IP) mouse infection model (ED50); type: in vivo; settings: Streptococcus pyogenes, MAC-R S. pyogenes 3029
[11] = tested on: S. aureus; assay: mouse systemic infection model (PD50); type: in vivo
[12] = tested on: S. pneumoniae; assay: mouse systemic infection model (PD50); type: in vivo
[13] = tested on: S. pyogenes; assay: mouse systemic infection model (PD50); type: in vivo
[14] = tested on: S. pneumoniae; assay: MIC of the strains of the mouse systemic infection model; type: cell-based; settings: Streptococcus pneumoniae
[15] = tested on: S. pyogenes ATCC 8668; assay: mouse subcutaneous abscess model; type: in vivo; settings: 48 hr. post infection
Experimental: Example. Mouse Subcutaneous Abscess. Bacteria were prepared from an overnight plate culture by re-suspending in saline and adjusting the suspension to a 0.1 OD at 625 nm of a 1:10 dilution. The adjusted bacterial suspension was mixed 1:2 with cyclodextran beads prepared as per package instructions. The right flanks of the mice were shaven and injected subcutaneously with 0.2 ml of the bacterial inoculum. Two hours post infection mice were treated via oral gavage with either test article or control drug. 48 hours post infection, mice were euthanized, abscesses aseptically removed, homogenized, serially diluted and plated on bacterial growth agar. After overnight incubation, colonies were counted and CFUs/gram of abscess were determined.
Example. Mouse Subcutaneous Abscess˜S. pyogenes ATCC 8668 (Average Log10 CFU/gram of Abscess). Abscess processing 48 hours post infection.

[16] = tested on: S. pneumoniae; assay: neutropenic mouse thigh infection; type: in vivo; settings: PO
Experimental: Example. Neutropenic Mouse Thigh Infection. Mice were rendered neutropenic with IP injections of cyclophosamide at day −4 and day −1 of 150 mg/Kg and 100 mg/Kg, respectively. On day 0 mice were infected with approximately 5×10^5 CFU/ml of bacteria in a 0.1 ml volume into the right thigh. At 1.5 hours post infection mice received treatment via oral gavage. One group of infected mice were euthanized and thigh processed for bacterial titers to serve as T=0 controls. Twenty-four hours post treatment, the remaining mice were euthanized, thighs aseptically removed, weighed, homogenized, serially diluted and plated on bacterial growth media. CFUs per gram of thigh were calculated after overnight incubation of bacterial plates. The amount of test article required to achieve 1, 2, and 3 loge reductions from 24 hour control thighs were calculated. Additional studies were performed that fractionated the single treatment dose (Q24) into two (Q12), three (Q8) and four (Q6) equivalent doses to determine the pharmacodynamic nature of this compound. Further analysis includes static dose, EC50, 1 log kill and maximal effect (Emax).

[17] = tested on: S. pneumoniae; assay: microbe, parasite or virus in culture; type: cell-based
[18] = tested on: M. catarrhalis; assay: microbe, parasite or virus in culture; type: cell-based; settings: Moraxella catarrhalis
[19] = tested on: pneumococci; assay: microbe, parasite or virus in culture; type: cell-based, S. pneumoniae
[20] = S. pneumoniae (macrolide susceptible)
[21] = Streptococcus pneumoniae, pneumococci, L4 mutations (27)

SMILES: CC[C@H]1OC(=O)[C@H](C)C(=O)[C@H](C)[C@@H](O[C@@H]2O[C@H](C)C[C@H](N(C)C)[C@H]2O)[C@](C)(OC)C[C@@H](C)C(=O)[C@H](C)[C@H]2N(CCCCn3cnc(-c4cccnc4)c3)C(=O)O[C@]12C [TEL, telithromycin]
- MIC50 [1]: 0.00025 µg/mL (≈ 0.000308 µM)
- MIC90 [1]: 0.001 µg/mL (≈ 0.00123 µM)
- MIC Range [2]: ≦0.00003-0.00025 μg/mL
- MIC Range [3]: 0.002 to 0.031 µg/mL
- MIC50 ([3]; Mycoplasmopsis fermentans): ≤ 0.008 µg/mL
- MIC90 ([3]; Mycoplasmopsis fermentans): 0.016 µg/mL (≈ 0.0197 µM)
- MIC Range [4]: 0.125 to 0.5 µg/mL
- MIC50 ([4]; Metamycoplasma hominis, read-out: MIC50): 0.25 µg/mL (≈ 0.308 µM)
- MIC90 ([4]; Metamycoplasma hominis, read-out: MIC90): 0.5 µg/mL (≈ 0.616 µM)
- MIC Range ([5]; U. parvum (10 isolates)): 0.008 to 0.063 µg/mL
- MIC50 ([5]; Ureaplasma parvum): 0.063 µg/mL (≈ 0.0776 µM)
- MIC90 ([5]; Ureaplasma parvum): 0.125 µg/mL (≈ 0.154 µM)
- MIC Range [6]: 0.016 to 0.25 µg/mL
- MIC50 ([6]; Ureaplasma urealyticum): 0.063 µg/mL (≈ 0.0776 µM)
- MIC90 ([6]; Ureaplasma urealyticum): 0.25 µg/mL (≈ 0.308 µM)
- MIC [7]: 0.015 to 0.12 µg/mL (≈ 0.0185 to 0.148 µM)
- MIC50 [7]: ≤ 0.015 µg/mL
- MIC90 [7]: 0.03 µg/mL (≈ 0.0369 µM)
- strains with resistant clones / strains tested ([8]; S. pyogenes): 2/4 and 2/5
- MIC ([8]; read-out: Initial MIC, strain 237 Macrolide-R [LA mutation], parent): 0.06 µg/mL (≈ 0.0739 µM)
- MIC ([8]; read-out: Initial MIC, strain 2011 Macrolide-R [mef(A)], parent): 0.5 µg/mL (≈ 0.616 µM)
- MIC ([8]; read-out: Initial MIC, strain 2094 Macrolide-R [erm(A)], parent): 0.03 µg/mL (≈ 0.0369 µM)
- MIC ([8]; read-out: Initial MIC, strain 2132 Macrolide-S, parent): 0.008 µg/mL (≈ 0.00985 µM)
- MIC ([8]; read-out: MIC of parents of resistant clones, S. pyogenes): 0.03 to 8 µg/mL
- MIC ([8]; read-out: Parental MICs, S. pyogenes, 5 strains with varying resistotypes): 0.03 to 8 µg/mL (≈ 0.0369 to 9.85 µM)
- MIC ([8]; read-out: Selected Resistance (MIC), strain 237 Macrolide-R [LA mutation], after serial passages in the drug): 0.125 µg/mL (≈ 0.154 µM)
- MIC ([8]; read-out: Selected Resistance (MIC), strain 2011 Macrolide-R [mef(A)], after serial passages in the drug): 1 µg/mL (≈ 1.23 µM)
- MIC ([8]; read-out: Selected Resistance (MIC), strain 2094 Macrolide-R [erm(A)], after serial passages in the drug): 0.25 µg/mL (≈ 0.308 µM)
- MIC ([8]; read-out: Selected Resistance (MIC), strain 2132 Macrolide-S, after serial passages in the drug): 0.03 µg/mL (≈ 0.0369 µM)
- MIC ([8]; read-out: Selected Resistance (MIC), strain 2368 Macrolide-R [erm(B)], after serial passages in the drug): > 64 µg/mL
- days until resistant clones (MIC increase) ([8]; daily passages, max. 50): 6 to 22 days
- Retest MIC after 10 Antibioticfree Subcultures ([8]; strain 237 Macrolide-R [LA mutation], clone selected with CEM-101): 1 µg/mL
- Retest MIC after 10 Antibioticfree Subcultures ([8]; strain 237 Macrolide-R [LA mutation], clone selected with CLN): 0.06 µg/mL
- Retest MIC after 10 Antibioticfree Subcultures ([8]; strain 2011 Macrolide-R [mef(A)], clone selected with AZI): 0.25 µg/mL
- Retest MIC after 10 Antibioticfree Subcultures ([8]; strain 2094 Macrolide-R [erm(A)], clone selected with AZI): 0.03 µg/mL
- Retest MIC after 10 Antibioticfree Subcultures ([8]; strain 2094 Macrolide-R [erm(A)], clone selected with CEM-101): 0.5 µg/mL
- Retest MIC after 10 Antibioticfree Subcultures ([8]; strain 2094 Macrolide-R [erm(A)], clone selected with CLN): 0.03 µg/mL
- Retest MIC after 10 Antibioticfree Subcultures ([8]; strain 2094 Macrolide-R [erm(A)], clone selected with CLR): 0.03 µg/mL
- Retest MIC after 10 Antibioticfree Subcultures ([8]; strain 2094 Macrolide-R [erm(A)], clone selected with TEL): 0.125 µg/mL
- Retest MIC after 10 Antibioticfree Subcultures ([8]; strain 2132 Macrolide-S, clone selected with AZI): 0.03 µg/mL
- Retest MIC after 10 Antibioticfree Subcultures ([8]; strain 2368 Macrolide-R [erm(B)], clone selected with CEM-101): >64 µg/mL
- Retest MIC after 10 Antibioticfree Subcultures ([8]; strain 2368 Macrolide-R [erm(B)], clone selected with TEL): >64 µg/mL
- Cs, static concentration [9]: 0.06 mg/L
- ED50 [10]: > 150 mg/kg
- PD50 ([11]; MRSA 300 (CA)): 9.2 mg/kg
- PD50 ([11]; S. aureus, single oral dose 1 hr post infection): >30 mg/kg
- PD50 [12, 20]: 19.9 mg/kg
- PD50 ([12]; S. pneumoniae (mefR)): 10.6 mg/kg
- PD50 ([12]; S. pneumoniae serotype 19A): 5.7 mg/kg
- PD50 ([13]; S. pyogenes (erythromycin R)): 4.4 mg/kg
- PD50 ([13]; S. pyogenes (macrolide susceptible)): 7.8 mg/kg
- MIC [14, 20]: < 0.06 µg/mL
- MIC ([14]; S. pneumoniae (mefR), read-out: MIC): 0.25 µg/mL
- MIC ([14]; S. pneumoniae serotype 19A, read-out: MIC): 0.5 µg/mL
- Average Log10 CFU/gram of Abscess ([15]; 10 mg/Kg): 7.06 Log10 CFU/gram
- Average Log10 CFU/gram of Abscess ([15]; 20 mg/Kg): 6.10 Log10 CFU/gram
- Max. change in log10CFUs from 24 hr. controls ([16]; S. pneumoniae 1629): −6.82 log10CFUs
- Dose for 2 log10 Reduction from 24 hour controls ([16]; S. pneumoniae 1629, QD): 13.2 mg/Kg
- Max. change in log10CFUs from 24 hr. controls ([16]; S. pneumoniae 6303): −5.27 log10CFUs
- MIC 90% [17]: 0.5 µg/mL (≈ 0.616 µM)
- susceptible [17]: 100.0%
- MIC90 ([17]; Streptococcus pneumoniae): 1 µg/mL (≈ 1.23 µM)
- MIC50 [18]: 0.12 µg/mL (≈ 0.148 µM)
- MIC90 [18]: 0.25 µg/mL (≈ 0.308 µM)
- MIC Range [19]: 0.03 to 2 µg/mL
- MIC range [19]: 0.015 to 1 µg/mL and 0.03 to 2 µg/mL and 0.03 to 0.5 µg/mL and 0.03 to 0.06 µg/mL
- MIC50 [19, 21]: 0.125 µg/mL (≈ 0.154 µM)
- MIC90 [19, 21]: 0.25 µg/mL (≈ 0.308 µM)
- MIC ([19]; Streptococcus pneumoniae, read-out: MIC range): 0.015 to 0.03 µg/mL (≈ 0.0185 to 0.0369 µM)
- MIC ([19]; Streptococcus pneumoniae, read-out: MIC range, pneumococci, L4 mutations (27)): 0.06 to 0.25 µg/mL (≈ 0.0739 to 0.308 µM)

Reference: US9901592B2 (priority 2008, dated 2018)
